Laboratory results: patent US20040224972A1, “Medicinal compositions for concomitant use as anticancer agent” (priority 2000, published 2004)
Structures can show the parent of a compound that is named as a salt. Where two headings read alike, the source gives them in different places.

How the values were obtained:
[1] = tested on: Human colon cancer strain HCT15 xenograft; conditions: E7070 30 mg/kg/day QDx5, CPT-11 75 mg/kg/day Q4Dx3; for Toxicity mRBW mean (minimum relative body weight): day of minimum in parentheses
Experimental: Human colon cancer strain HCT15 (purchased from ATCC) was cultured in RPMI1640 (containing 10%FBS) in a 5%CO2gas incubator until it attained about 80% confluence, and the cells were harvested with trypsin-EDTA and suspended in Hanks balanced solution to prepare a suspension of 5×10^7 cells/ml. 0.1 ml of the cell suspension was implanted subcutaneously in each nude mouse. When the average tumor volume reached 182 mm3 after the implantation, E7070 in a dose of 30 mg/kg/day and/or CPT-11 in a dose of 75 mg/kg/day were administered either alone or in combination. E7070was intravenously administered once per day for 5 days (first to fifth days), while CPT-11 was intravenously administered 3 times (once every 4 days, that is, on the first, fifth and ninth days). After the administration was initiated, the longer and shorter diameters of the tumor were measured at the frequency of 2 times/week with digital calipers (Mitsutoyo), and the tumor volume was calculated according to the following equation.
(§1) Tumor volume=longer diameter of tumor (mm)×shorter diameter of tumor (mm)^2/2
(§2) The items for determination of antitumor effect were the following 2 items:
Tx4: The time in days for tumor size to attain 4 folds of initial size.
(§3) Minimum relative tumor volume (mRTV): Minimum value of relative tumor volume (RTV*)
(§4) *: Tumor volume on n days after first treatment/tumor volume at the start of treatment.

[2] = tested on: Human colon cancer strain SW620 xenograft; experiment: Combined use of E7070 and CPT-11 in human colon cancer SW620 xenograft model; conditions: E7070 25 mg/kg/day QDx5, CPT-11 62.5 mg/kg/day Q4Dx3
Experimental: Human colon cancer strain SW620 (purchased from ATCC) was cultured in RPMI1640 (containing 10% FBS) in a 5% Co2gas incubator until it attained about 80% confluence, and the cells were harvested with trypsin-EDTA and suspended in Hanks balanced solution to prepare a suspension of 5×10^7 cells/ml. 0.1 ml of the cell suspension was implanted subcutaneously in each nude mouse. When the average tumor volume reached 226 mm^3 after the implantation, E7070 in a dose of 25 mg/kg/day and/or CPT-11 in a dose of 62.5 mg/kg/day were administered either alone or in combination. E7070 alone was intravenously administered once per day for 5 days (first to fifth days), while CPT-11 alone was intravenously administered 3 times (once every 4 days, that is, on the first, fifth and ninth days). Administration in combination was performed in 3 schedules, that is, simultaneous administration (E7070 on the first to fifth days; CPT-11 on the first, fifth and ninth days), previous administration of E7070 (E7070 on the first to fifth days; CPT-11 on the sixth, tenth and fourteenth days) and previous administration of CPT-11 (E7070 on the tenth to fourteenth days; CPT-11 on the first, fifth and ninth days). After the administration was initiated, the longer and shorter diameters of the tumor were measured at the frequency of 2 times/week with digital calipers (Mitsutoyo), and the tumor volume was calculated according to the following equation.
as §1, §2, §3, §4

[3] = tested on: Human breast cancer HBC4 xenograft; experiment: Combined use of E7070 and capecitabine in human breast cancer HBC4 xenograft model; type: in vivo, human cells in nude mouse; conditions: nude mice, s.c. HBC4; E7070 30.625 mg/kg/day (87.5% MTD) day 1-5; capecitabine 1.3125 mmol/kg/day (87.5% MTD) 14 days; combination: E7070 day 1-5, capecitabine day 6-19
Experimental: When the average tumor volume reached 114 mm3 after the implantation, E7070 in a dose of 30.625 mg/kg/day and/or capecitabine in a dose of 1.3125 mmol/kg/day were administered either alone or in combination.

[4] = tested on: Human colon cancer strain HCT15 xenograft; experiment: Combined use of E7070 and MMC in human colon cancer HCT15 xenograft model; type: in vivo; conditions: E7070 QDx5, MMC 4.19 mg/kg/day QDx1; for Toxicity mRBW mean (minimum relative body weight): day of minimum in parentheses
Experimental: Human colon cancer strain HCT15 (purchased from ATCC) was cultured in RPMI1640 (containing 10% FBS) in a 5% CO2gas incubator until it attained about 80% confluence, and the cells were harvested with trypsin-EDTA and suspended in Hanks balanced solution to prepare a suspension of 5×10^7 cells/ml. 0.1 ml of the cell suspension was implanted subcutaneously in each nude mouse. When the average tumor volume reached 156 mm3 after the implantation, E7070 in a dose of 25 mg/kg/day and/or MMC in a dose of 4.19 mg/kg/day were administered either alone or in combination. E7070was intravenously administered once per day for 5 days (first to fifth days), while MMC was intravenously administered once (first day). After the administration was initiated, the longer and shorter diameters of the tumor were measured at the frequency of 2 times/week with digital calipers (Mitsutoyo), and the tumor volume was calculated according to the following equation.
as §1, §2

[5] = tested on: Human colon cancer strain Colo320D. M. xenograft; experiment: Combined use of E7070 and 5-FU in human colon cancer Colo320D. M. xenograft model; type: in vivo; conditions: for Toxicity Dead/Treated: E7070 30 mg/kg/day QDx5, 5-FU 60 mg/kg/day Q4Dx3
Description: Human colon cancer strain Colo320D.

[6] = Examination of gemcitabine hydrochloride, doxorubicin and taxol for synergistic effect (combined with E7070); conditions: used in the composition with E7070; no data given

NS(=O)(=O)c1ccc(S(=O)(=O)Nc2cccc3c(Cl)c[nH]c23)cc1 [E7070, N-(3-chloro-1H-indol-7-yl)-4-sulfamoylbenzenesulfonamide]
Toxicity Dead/Treated [1]: 0/6
Toxicity mRBW mean (minimum relative body weight) [1]: 0.92 (7)
Toxicity Dead/Treated [2]: 0/6
Toxicity mRBW mean (minimum relative body weight) ([2]; day of minimum in parentheses): 0.98 (8)
mRTV mean ± S.D. (minimum relative tumor volume) ([2]; day of minimum in parentheses): 0.76 ± 0.42 (12)
Tx4 [3]: 50.0 ± 8.1 days
Toxicity Dead/Treated [4]: 0/6
Toxicity mRBW mean (minimum relative body weight) [4]: 0.93 (11)
Toxicity Dead/Treated [5]: 0/6

O=c1[nH]cc(F)c(=O)[nH]1 [5-FU, 5-fluoro-2,4-(1H,3H)-pyrimidinedione]
Toxicity Dead/Treated [5]: 0/6
Tx4 (days) mean ± S.D.: time in days for tumor size to attain 4 folds of initial tumor size ([5]; nude mice, s.c. Colo320D. M., E7070 30 mg/kg/day i.v. QDx5, 5-FU 60 mg/kg/day i.v. Q4Dx3, + simultaneous, → sequential): 10.0 ± 0.7 days

CCc1c2c(nc3ccc(OC(=O)N4CCC(N5CCCCC5)CC4)cc13)-c1cc3c(c(=O)n1C2)COC(=O)[C@]3(O)CC [CPT-11, [1,4′-Bipiperidine]-1′-carboxylicacid (S)-4,11-diethyl-3,4,12,14-tetrahydro-4-hydroxy-3,14-dioxo-1H-pyrano-[3′,4′:6,7]-indolizino[1,2-b]quinolin-9-yl ester Hydrochloride trihydrate]
Toxicity Dead/Treated [1]: 0/6
Toxicity mRBW mean (minimum relative body weight) [1]: 0.94 (7, 10)
Toxicity Dead/Treated [2]: 0/6
Toxicity mRBW mean (minimum relative body weight) ([2]; day of minimum in parentheses): 0.99 (8)

Cl.Nc1ccn([C@@H]2O[C@H](CO)[C@@H](O)C2(F)F)c(=O)n1 [gemcitabine hydrochloride, 2′-deoxy-2′,2′-difluoro-cytidine hydrochloride]
antitumor activity when examined for synergistic effect [6]: excellent antitumor activity

CO[C@@]12[C@H](COC(N)=O)C3=C(C(=O)C(C)=C(N)C3=O)N1C[C@@H]1N[C@@H]12 [MMC, [1aS-(1aα,8β,8aα,8bα)]-6-amino-8-[[(aminocarbonyl)oxy]methyl]1,1a,2,8,8a,8b-hexahydro-8a-methoxy-5-methylazirino[2′,3′: 3,4]pyrrolo[1,2-a]indole-4,7-dione]
Toxicity Dead/Treated [4]: 0/6
Toxicity mRBW mean (minimum relative body weight) [4]: 0.99 (11)

COc1cccc2c1C(=O)c1c(O)c3c(c(O)c1C2=O)C[C@@](O)(C(=O)CO)C[C@@H]3O[C@H]1C[C@H](N)[C@H](O)[C@H](C)O1 [doxorubicin, 10-[(3-amino-2,3,6-trideoxy-α-L-lyxo-hexopyranosyl)oxy]-7,8,9,10-tetrahydro-6,8,11-trihydroxy-8-(hydroxyacetyl)-1-methoxy-(8S-cis)-5,12-naphthacenedione]
antitumor activity when examined for synergistic effect [6]: excellent antitumor activity
